Reference: PubChem BioAssay (NCI)
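Values below derive from 48-hour exposures of cells grown in 96-well plates, with endpoints linearly interpolated between the two concentrations bracketing the appropriate inhibition level. Abbreviation: GI50, concentration required for 50% inhibition of growth. At the TGI there is no net growth.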

Assays:
Test in all cases: inhibition of tumour cell growth, NCI panel, 48 h
RXF 393 renal = system: RXF 393 renal
M14 melanoma = system: M14 melanoma
UO-31 renal = system: UO-31 renal
HS 578T breast = system: HS 578T breast
SF-539 CNS = system: SF-539 CNS
K-562 leukemia = system: K-562 leukemia
NCI/ADR-RES ovarian = system: NCI/ADR-RES ovarian
SK-MEL-2 melanoma = system: SK-MEL-2 melanoma
HCT-116 colon = system: HCT-116 colon
UACC-62 melanoma = system: UACC-62 melanoma
LOX IMVI melanoma = system: LOX IMVI melanoma
COLO 205 colon = system: COLO 205 colon
MCF7 breast = system: MCF7 breast
SNB-19 CNS = system: SNB-19 CNS
CCRF-CEM leukemia = system: CCRF-CEM leukemia
NCI-H226 lung = system: NCI-H226 lung
ACHN renal = system: ACHN renal
U251 CNS = system: U251 CNS
OVCAR-8 ovarian = system: OVCAR-8 ovarian
SK-MEL-28 melanoma = system: SK-MEL-28 melanoma
IGROV1 ovarian = system: IGROV1 ovarian
SW-620 colon = system: SW-620 colon
SNB-75 CNS = system: SNB-75 CNS
MALME-3M melanoma = system: MALME-3M melanoma
BT-549 breast = system: BT-549 breast
OVCAR-5 ovarian = system: OVCAR-5 ovarian
HOP-62 NSCLC = system: HOP-62 NSCLC
CAKI-1 renal = system: CAKI-1 renal
MDA-MB-435 = system: MDA-MB-435
SR leukemia = system: SR leukemia
A498 renal = system: A498 renal
HCT-15 colon = system: HCT-15 colon
SK-OV-3 ovarian = system: SK-OV-3 ovarian
HL-60(TB) leukemia = system: HL-60(TB) leukemia
TK-10 renal = system: TK-10 renal
HCC-2998 colon = system: HCC-2998 colon
NCI-H23 lung = system: NCI-H23 lung
PC-3 prostate = system: PC-3 prostate
786-0 renal = system: 786-0 renal
KM12 colon = system: KM12 colon
RPMI-8226 leukemia = system: RPMI-8226 leukemia
SN12C renal = system: SN12C renal
OVCAR-3 ovarian = system: OVCAR-3 ovarian
NCI-H460 lung = system: NCI-H460 lung
OVCAR-4 ovarian = system: OVCAR-4 ovarian
T-47D breast = system: T-47D breast
A549 NSCLC = system: A549 NSCLC
SF-268 CNS = system: SF-268 CNS
NCI-H522 lung = system: NCI-H522 lung
SF-295 CNS = system: SF-295 CNS
MOLT-4 leukemia = system: MOLT-4 leukemia
UACC-257 melanoma = system: UACC-257 melanoma
SK-MEL-5 melanoma = system: SK-MEL-5 melanoma
MDA-MB-231 breast = system: MDA-MB-231 breast
HOP-92 NSCLC = system: HOP-92 NSCLC
EKVX NSCLC = system: EKVX NSCLC
DU-145 prostate = system: DU-145 prostate
HT29 colon = system: HT29 colon

`N#C/C(=C\c1ccc(Br)cc1)n1nnc2ccc(F)cc21` was tested, and the GI50 (RXF 393 renal) was 0.465 µM, the TGI (RXF 393 renal) was 1.86 µM and the GI50 (M14 melanoma) was 0.385 µM. For the same compound, the TGI (M14 melanoma) was 1.69 µM, the GI50 (UO-31 renal) was 1.02 µM and the TGI (UO-31 renal) was 2.2 µM. For the same compound, the GI50 (HS 578T breast) was 2.71 µM, the TGI (HS 578T breast) was 20.4 µM and the GI50 (SF-539 CNS) was 1.26 µM. For the same compound, the TGI (SF-539 CNS) was 2.94 µM, the GI50 (K-562 leukemia) was 0.332 µM and the TGI (K-562 leukemia) was over 100 µM. The GI50 (NCI/ADR-RES ovarian) was 0.34 µM, the TGI (NCI/ADR-RES ovarian) was 3.42 µM and the GI50 (SK-MEL-2 melanoma) was 1.56 µM. For the same compound, the TGI (SK-MEL-2 melanoma) was 4.98 µM, the GI50 (HCT-116 colon) was 0.741 µM and the TGI (HCT-116 colon) was 2.35 µM. It also gave a GI50 (UACC-62 melanoma) of 0.713 µM, a TGI (UACC-62 melanoma) of 2.71 µM and a GI50 (LOX IMVI melanoma) of 0.347 µM. The TGI (LOX IMVI melanoma) was 1.28 µM, the GI50 (COLO 205 colon) was 1.54 µM and the TGI (COLO 205 colon) was 4 µM. The GI50 (MCF7 breast) was 0.372 µM, the TGI (MCF7 breast) was 2.85 µM and the GI50 (SNB-19 CNS) was 1.66 µM. For the same compound, the TGI (SNB-19 CNS) was 3.16 µM, the GI50 (CCRF-CEM leukemia) was 0.395 µM and the TGI (CCRF-CEM leukemia) was over 100 µM. It also gave a GI50 (NCI-H226 lung) of 1.67 µM, a TGI (NCI-H226 lung) of 4.03 µM and a GI50 (ACHN renal) of 0.671 µM. It also gave a TGI (ACHN renal) of 2.06 µM, a GI50 (U251 CNS) of 1.64 µM and a TGI (U251 CNS) of 3.34 µM. For the same compound, the GI50 (OVCAR-8 ovarian) was 1.84 µM, the TGI (OVCAR-8 ovarian) was 18.2 µM and the GI50 (SK-MEL-28 melanoma) was 1.29 µM. The TGI (SK-MEL-28 melanoma) was 3.25 µM, the GI50 (IGROV1 ovarian) was 0.569 µM and the TGI (IGROV1 ovarian) was 2.25 µM. It also gave a GI50 (SW-620 colon) of 0.447 µM, a TGI (SW-620 colon) of 2.34 µM and a TGI (SNB-75 CNS) of 2.24 µM. The GI50 (MALME-3M melanoma) was 1.44 µM, the TGI (MALME-3M melanoma) was 4.68 µM and the GI50 (BT-549 breast) was 0.671 µM. It also gave a TGI (BT-549 breast) of 3.63 µM, a GI50 (OVCAR-5 ovarian) of 1.87 µM and a TGI (OVCAR-5 ovarian) of 3.99 µM. The GI50 (HOP-62 NSCLC) was 2.33 µM, the TGI (HOP-62 NSCLC) was 7.52 µM and the GI50 (CAKI-1 renal) was 0.293 µM. The TGI (CAKI-1 renal) was 1.35 µM, the GI50 (MDA-MB-435) was 0.19 µM and the TGI (MDA-MB-435) was 0.403 µM. It also gave a GI50 (SR leukemia) of 0.348 µM, a TGI (SR leukemia) of over 100 µM and a GI50 (A498 renal) of 1.7 µM. For the same compound, the TGI (A498 renal) was 3.54 µM, the GI50 (HCT-15 colon) was 0.353 µM and the TGI (HCT-15 colon) was 1.78 µM. The GI50 (SK-OV-3 ovarian) was 4.85 µM, the TGI (SK-OV-3 ovarian) was over 100 µM and the GI50 (HL-60(TB) leukemia) was 0.702 µM. For the same compound, the TGI (HL-60(TB) leukemia) was 5.23 µM, the GI50 (TK-10 renal) was 2.26 µM and the TGI (TK-10 renal) was 5.61 µM. The GI50 (HCC-2998 colon) was 1.43 µM, the TGI (HCC-2998 colon) was 2.89 µM and the GI50 (NCI-H23 lung) was 1.42 µM. It also gave a TGI (NCI-H23 lung) of 3.34 µM, a GI50 (PC-3 prostate) of 0.953 µM and a TGI (PC-3 prostate) of 2.89 µM. It also gave a GI50 (786-0 renal) of 0.846 µM, a TGI (786-0 renal) of 2.6 µM and a GI50 (KM12 colon) of 1.3 µM. It also gave a TGI (KM12 colon) of 4.04 µM, a GI50 (RPMI-8226 leukemia) of 0.841 µM and a TGI (RPMI-8226 leukemia) of 6.96 µM. The GI50 (SN12C renal) was 1.72 µM, the TGI (SN12C renal) was 4.37 µM and the GI50 (OVCAR-3 ovarian) was 0.373 µM. For the same compound, the TGI (OVCAR-3 ovarian) was 1.49 µM, the GI50 (NCI-H460 lung) was 2.26 µM and the TGI (NCI-H460 lung) was 5.33 µM. The GI50 (OVCAR-4 ovarian) was 0.939 µM, the TGI (OVCAR-4 ovarian) was 5.31 µM and the GI50 (T-47D breast) was 0.447 µM. For the same compound, the TGI (T-47D breast) was 6.11 µM, the GI50 (A549 NSCLC) was 2.01 µM and the TGI (A549 NSCLC) was 72.4 µM. The GI50 (SF-268 CNS) was 1.84 µM, the TGI (SF-268 CNS) was 4.33 µM and the GI50 (NCI-H522 lung) was 0.227 µM. The TGI (NCI-H522 lung) was 0.858 µM, the GI50 (SF-295 CNS) was 2.11 µM and the TGI (SF-295 CNS) was 5.07 µM. For the same compound, the GI50 (MOLT-4 leukemia) was 2.18 µM, the TGI (MOLT-4 leukemia) was over 100 µM and the GI50 (UACC-257 melanoma) was 1.42 µM. For the same compound, the TGI (UACC-257 melanoma) was 4.25 µM, the GI50 (SK-MEL-5 melanoma) was 1.57 µM and the TGI (SK-MEL-5 melanoma) was 2.94 µM. The GI50 (MDA-MB-231 breast) was 1.87 µM and the TGI (MDA-MB-231 breast) was 4.8 µM.

`CC(=O)OCc1cc2ccccc2nc1C(Br)(Br)Br` gave a TGI (RXF 393 renal) of 33.4 µM, a TGI (HOP-92 NSCLC) of 31.2 µM and a TGI (M14 melanoma) of 55 µM. For the same compound, the TGI (UO-31 renal) was 29.5 µM, the TGI (HS 578T breast) was over 100 µM and the TGI (SF-539 CNS) was 38.2 µM. It also gave a TGI (K-562 leukemia) of 45.4 µM, a TGI (NCI/ADR-RES ovarian) of 44 µM and a TGI (SK-MEL-2 melanoma) of 41.9 µM. It also gave a TGI (HCT-116 colon) of 31.6 µM, a TGI (UACC-62 melanoma) of 32.2 µM and a TGI (EKVX NSCLC) of 41.8 µM. The TGI (LOX IMVI melanoma) was 29.2 µM, the TGI (COLO 205 colon) was 55.2 µM and the TGI (MCF7 breast) was 30.7 µM. It also gave a TGI (SNB-19 CNS) of 46.2 µM, a TGI (DU-145 prostate) of 23.9 µM and a TGI (CCRF-CEM leukemia) of 29.3 µM. It also gave a TGI (NCI-H226 lung) of 60.8 µM, a TGI (ACHN renal) of 27.3 µM and a TGI (U251 CNS) of 28.1 µM. The TGI (HT29 colon) was 44.9 µM, the TGI (SK-MEL-28 melanoma) was 42.6 µM and the TGI (IGROV1 ovarian) was 25.7 µM. The TGI (SW-620 colon) was 44.8 µM, the TGI (SNB-75 CNS) was 39.9 µM and the TGI (MALME-3M melanoma) was 18.1 µM. The TGI (BT-549 breast) was 27.2 µM, the TGI (OVCAR-5 ovarian) was 30.7 µM and the TGI (HOP-62 NSCLC) was 56.3 µM. The TGI (CAKI-1 renal) was 29.5 µM, the TGI (MDA-MB-435) was 27 µM and the TGI (SR leukemia) was 13.7 µM. It also gave a TGI (A498 renal) of 42.8 µM, a TGI (HCT-15 colon) of 54.7 µM and a TGI (SK-OV-3 ovarian) of 86.6 µM. It also gave a TGI (HL-60(TB) leukemia) of 40.9 µM, a TGI (TK-10 renal) of 36.7 µM and a TGI (HCC-2998 colon) of 29.3 µM. For the same compound, the TGI (NCI-H23 lung) was 29.8 µM, the TGI (786-0 renal) was 46 µM and the TGI (KM12 colon) was 27.6 µM. The TGI (SN12C renal) was 26.3 µM, the TGI (OVCAR-3 ovarian) was 30.2 µM and the TGI (NCI-H460 lung) was 33.8 µM. For the same compound, the TGI (OVCAR-4 ovarian) was 30.5 µM, the TGI (T-47D breast) was over 100 µM and the TGI (A549 NSCLC) was 31.2 µM. The TGI (SF-268 CNS) was 39.9 µM, the TGI (NCI-H522 lung) was 34 µM and the TGI (SF-295 CNS) was 32.9 µM. It also gave a TGI (MOLT-4 leukemia) of 28.1 µM, a TGI (UACC-257 melanoma) of 27 µM and a TGI (SK-MEL-5 melanoma) of 23.9 µM. The TGI (MDA-MB-231 breast) was 44.9 µM.
